{
  "source": "patent US20100120727A1",
  "about": "“Eflornithine Prodrugs, Conjugates and Salts, and Methods of Use Thereof” (Kyphia Pharmaceuticals, Inc., priority 2008, published 2010)",
  "origin": "cited, not measured here",
  "key": {"[1]": {"experiment": "not given", "remark": "listed apart in the source"}, "[2]": {"experiment": "not given", "remark": "listed apart in the source"}, "[3]": {"system": "COX"}, "[4]": {"system": "tumor putrescine levels", "settings": "DFMO infusion"}, "[5]": {"system": "MCA sarcoma", "settings": "in vivo"}},
  "note": "Read-outs that look alike come from different tables or passages of the source.",
  "data": [
    {"compound": "CSc1ccc(/C=C2/C(C)=C(CC(=O)O)c3cc(F)ccc32)cc1", "note": "[sulfide metabolite]", "values": [
      {"measurement": "mean half-life", "setting": "in vivo", "result": 16.4, "unit": "h"}
    ]},
    {"compound": "CC(=O)Oc1ccccc1C(=O)O", "note": "[Aspirin, acetylsalicylic acid]", "values": [
      {"measurement": "solubility in water", "setting": "[1]", "result": "very low solubility in water"}
    ]},
    {"compound": "CC1=C(CC(=O)O)c2cc(F)ccc2/C1=C\\c1ccc([S+](C)[O-])cc1", "note": "(stereo not shown) [Sulindac, (Z)-5-Fluoro-2-methyl-1-((4 (methylsulfinyl)phenyl)methylene)1H-indene-3-acetic acid]", "values": [
      {"measurement": "mild gastrointestinal effects, share of patients", "setting": "[2]; abdominal pain and nausea most frequent", "result": "~20", "unit": "%"},
      {"measurement": "skin rash and pruritus, share of patients", "setting": "[2]; human, in vivo", "result": 5, "unit": "%"},
      {"measurement": "time to peak plasma levels", "setting": "administered with food", "result": "3 to 4", "unit": "h"},
      {"measurement": "fraction of the drug absorbed", "setting": "after oral administration", "result": "about 90%"},
      {"measurement": "time to peak plasma levels", "setting": "fasting patients", "result": "about 2 hours"}
    ]},
    {"compound": "CC1=C(CC(=O)O)c2cc(F)ccc2/C1=C\\c1ccc(S(C)(=O)=O)cc1", "note": "[Sulindac sulfone]", "values": [
      {"measurement": "COX-inhibitory activity", "setting": "[3]", "result": "lacks COX-inhibitory activity"}
    ]},
    {"compound": "NCCCC(N)(C(=O)O)C(F)F", "note": "(racemic) [DFMO, 2-(Difluoromethyl)-DL-ornithine]", "values": [
      {"measurement": "decrease in tumor putrescine levels", "setting": "[4]", "result": 90, "unit": "%"},
      {"measurement": "tumor growth rate and regression", "setting": "[5]", "result": "reduces the growth rate of an MCA sarcoma but does not produce tumor regression"}
    ]}
  ]
}
